Test results published in ChEMBL document CHEMBL1770079, “Discovery of small molecule human FPR1 receptor antagonists” (Bioorg Med Chem Lett, 2011).
Converted amounts (≈) assume the structure as drawn. Each block holds one molecule with its values, some of them ahead of it. The source made the active and inactive calls. The rule behind the calls is not given here.

Experiments:
[1] = Intrinsic clearance in human microsomes; assay type: ADME, Microsome
[2] = molecular target: T1, fMet-Leu-Phe receptor (Homo sapiens, UniProt P21462); test: (§1) Intrinsic activity at FPR1 in human neutrophils assessed as increase in calcium mobilization by FLIPR assay relative to fMLF; assay type: functional
T1 sequence (P21462 whole entry): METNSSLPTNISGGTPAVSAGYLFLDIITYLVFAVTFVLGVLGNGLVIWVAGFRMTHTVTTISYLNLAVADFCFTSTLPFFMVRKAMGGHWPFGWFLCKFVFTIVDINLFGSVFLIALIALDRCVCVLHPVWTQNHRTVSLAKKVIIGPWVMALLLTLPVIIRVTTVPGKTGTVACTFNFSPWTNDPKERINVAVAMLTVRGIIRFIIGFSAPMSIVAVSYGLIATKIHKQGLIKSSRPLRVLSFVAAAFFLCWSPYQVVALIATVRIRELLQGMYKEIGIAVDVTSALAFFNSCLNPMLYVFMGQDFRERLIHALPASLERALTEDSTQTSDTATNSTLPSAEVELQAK

[3] = molecular target: T1, fMet-Leu-Phe receptor; test: Displacement of [3H]fMLF from human FPR1 expressed in CHO cells by scintillation counting; assay type: cell-based
[4] = molecular target: T1, fMet-Leu-Phe receptor; test: Antagonist activity at FPR1 in human neutrophils assessed as inhibition of fMLF-stimulated calcium mobilization by FLIPR assay; assay type: functional
[5] = molecular target: T2, N-formyl peptide receptor 2 (Homo sapiens) (UniProt P25090); test: Antagonist activity at FPR2 in human neutrophils assessed as inhibition of SHHGtide-stimulated intracellular calcium mobilisation at 50 uM by FLIPR assay; assay type: functional, cell-based
T2 sequence (whole entry): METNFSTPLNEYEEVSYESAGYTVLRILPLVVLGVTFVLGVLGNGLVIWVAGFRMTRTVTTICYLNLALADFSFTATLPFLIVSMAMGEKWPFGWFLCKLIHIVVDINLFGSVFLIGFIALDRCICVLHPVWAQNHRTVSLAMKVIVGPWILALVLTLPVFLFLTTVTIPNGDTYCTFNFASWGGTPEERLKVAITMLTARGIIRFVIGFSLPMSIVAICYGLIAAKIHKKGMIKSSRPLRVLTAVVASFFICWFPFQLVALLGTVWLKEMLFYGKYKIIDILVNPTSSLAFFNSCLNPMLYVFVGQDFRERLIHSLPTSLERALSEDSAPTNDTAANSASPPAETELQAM

[6] = molecular target: T3, C-X-C chemokine receptor type 2 (Homo sapiens) (UniProt P25025); test: Antagonist activity at CXCR2 in human neutrophils assessed as inhibition of GROalpha-stimulated intracellular calcium mobilization at 50 uM by FLIPR assay; assay type: functional, cell-based
T3 sequence (whole entry): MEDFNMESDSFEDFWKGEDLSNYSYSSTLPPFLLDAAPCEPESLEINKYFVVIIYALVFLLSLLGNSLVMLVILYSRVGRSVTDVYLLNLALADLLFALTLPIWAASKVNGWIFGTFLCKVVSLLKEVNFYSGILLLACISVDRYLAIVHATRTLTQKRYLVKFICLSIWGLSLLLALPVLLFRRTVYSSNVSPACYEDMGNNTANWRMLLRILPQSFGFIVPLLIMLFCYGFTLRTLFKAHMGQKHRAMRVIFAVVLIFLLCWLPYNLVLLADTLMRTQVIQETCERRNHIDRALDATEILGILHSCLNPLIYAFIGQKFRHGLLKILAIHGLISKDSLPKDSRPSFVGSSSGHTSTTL

[7] = molecular target: T4, C5a anaphylatoxin chemotactic receptor 1 (Homo sapiens) (UniProt P21730); test: Antagonist activity at C5aR in human neutrophils assessed as inhibition of C5a-stimulated intracellular calcium mobilization at 50 uM by FLIPR assay; assay type: functional, cell-based
T4 sequence (whole entry): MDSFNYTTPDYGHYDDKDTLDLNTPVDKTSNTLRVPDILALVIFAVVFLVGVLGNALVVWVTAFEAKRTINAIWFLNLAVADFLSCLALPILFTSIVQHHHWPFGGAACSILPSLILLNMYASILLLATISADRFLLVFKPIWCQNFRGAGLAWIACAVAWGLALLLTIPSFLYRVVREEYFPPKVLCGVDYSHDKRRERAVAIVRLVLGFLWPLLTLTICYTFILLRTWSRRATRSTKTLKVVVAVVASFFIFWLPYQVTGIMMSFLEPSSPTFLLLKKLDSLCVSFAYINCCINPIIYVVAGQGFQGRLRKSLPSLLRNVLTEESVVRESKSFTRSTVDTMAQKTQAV

[8] = molecular target: T1, fMet-Leu-Phe receptor; test: Antagonist activity at human FPR1 in expressed in HEK293 cells assessed as inhibition of fMLF-stimulated intracellular calcium mobilisation after 5 mins by FLIPR assay; assay type: functional, cell-based
[9] = Antagonist activity at rat FPR1 expressed in HEK293 cells assessed as inhibition of fMLF-stimulated intracellular calcium mobilisation by FLIPR assay; assay type: functional, cell-based
[10] = molecular target: T5, fMet-Leu-Phe receptor (Homo sapiens) (UniProt P21462); test: Agonist activity at FPR1 in human neutrophils assessed as increase in calcium mobilization at 50 uM by FLIPR assay; assay type: functional
T5 sequence (whole entry): T1 sequence (P21462 whole entry)

[11] = molecular target: T1, fMet-Leu-Phe receptor; test: Antagonist activity at FPR1 in human neutrophils assessed as inhibition of fMLF-stimulated degranulation after 15 mins by fluorescence assay; assay type: functional
[12] = molecular target: T5, fMet-Leu-Phe receptor (Homo sapiens); test: Antagonist activity at FPR1 in human neutrophils assessed as inhibition of PMA-stimulated neutrophil degranulation after 15 mins by fluorescence assay; assay type: functional
[13] = molecular target: T5, fMet-Leu-Phe receptor (Homo sapiens); test: Reversible inhibition of FPR1 in human neutrophils assessed as inhibition of fMLF-stimulated calcium mobilisation by FLIPR assay; assay type: functional
[14] = system: THP-1; test: Cytotoxicity against human THP1 cells assessed as cell viability after 24 hrs by Alamar blue assay; assay type: cell-based; settings: THP-1, 24 h
[15] = Solubility of the compound in 0.1 M phosphate buffer; assay type: physicochemical
[16] = molecular target: T6, fMet-Leu-Phe receptor (Mus musculus) (UniProt P33766); test: Antagonist activity at mouse FPR1 expressed in HEK293 cells assessed as inhibition of fMLFF-stimulated intracellular calcium mobilisation at 50 uM by FLIPR assay; assay type: functional, cell-based
T6 sequence (whole entry): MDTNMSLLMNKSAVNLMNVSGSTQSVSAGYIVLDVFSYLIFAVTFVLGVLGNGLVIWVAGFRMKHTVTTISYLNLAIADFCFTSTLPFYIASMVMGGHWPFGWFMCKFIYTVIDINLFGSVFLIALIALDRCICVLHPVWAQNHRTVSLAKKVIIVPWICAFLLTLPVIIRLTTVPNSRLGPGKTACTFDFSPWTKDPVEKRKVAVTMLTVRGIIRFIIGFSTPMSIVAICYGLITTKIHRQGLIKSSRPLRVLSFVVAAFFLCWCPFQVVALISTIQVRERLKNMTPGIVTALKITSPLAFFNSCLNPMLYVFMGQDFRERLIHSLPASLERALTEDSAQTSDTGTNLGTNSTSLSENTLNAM

[17] = molecular target: T5, fMet-Leu-Phe receptor (Homo sapiens); test: (§2) Agonist activity at FPR1 in human neutrophils assessed as increase in calcium mobilization by FLIPR assay; assay type: functional; parameters: concentration or dose not given beside the values; settings: concentration not given here
[18] = molecular target: T1, fMet-Leu-Phe receptor; test: as §2; assay type: functional
[19] = molecular target: T5, fMet-Leu-Phe receptor (Homo sapiens); test: as §1; assay type: functional
[20] = molecular target: T5, fMet-Leu-Phe receptor (Homo sapiens); test: Antagonist activity at FPR1 in human neutrophils assessed as inhibition of fMLF-stimulated calcium mobilization at 50 uM by FLIPR assay; assay type: functional
[21] = molecular target: T1, fMet-Leu-Phe receptor; test: Antagonist activity at FPR1; assay type: functional

microsomal CLint [1]: 3 µL/min/mg
IC50 [2]: 10000 nM
SMILES: CCOc1ccc2oc(C(=O)NC(CS(C)(=O)=O)c3nc4ccccc4[nH]3)c(C)c2c1 (configuration not stated)

IC50 [2]: 794 nM
SMILES: Cc1cccc(C)c1NC(=O)C(NC(=O)c1ccccc1O)C1CCCCC1 (configuration not stated)

IC50 [3]: 31.6 nM
IC50 [4]: 501 nM
IC50 [2]: 501 nM
inhibition [5]: < 25%
inhibition [6]: < 25%
IC50 [8]: 3160 nM
IC50 [9]: 10000 nM
inhibition [10]: < 25%
IC50 [11]: 158 nM
inhibition [12]: < 25%
inhibition [13]: Active
solubility [15]: 17 µM (≈ 7.2 µg/mL)
inhibition [16]: < 25%
SMILES: CCOc1ccc2oc(C(=O)NC(CCSC)c3nc4ccccc4[nH]3)c(C)c2c1 (configuration not stated)
inhibition [7]: < 25%
IC50 [14]: 100000 nM

IC50 [2]: 1580 nM
SMILES: Cc1cccc(C)c1NC(=O)C(NC(=O)c1ccccc1O)c1cn(C)cn1 (configuration not stated)

IC50 [2]: 3980 nM
SMILES: CSCCC(NC(=O)c1ccccc1O)c1nc2ccccc2[nH]1 (configuration not stated)

inhibition [17]: < 25%
IC50 [2]: 5010 nM
SMILES: CCOc1ccc2oc(C(=O)NC(CCSC)c3nc4ncncc4[nH]3)c(C)c2c1 (configuration not stated)

IC50 [2]: 631 nM
SMILES: CCOc1ccc2oc(C(=O)N[C@H](CSC)c3nc4ccccc4[nH]3)c(C)c2c1

EC50 [18]: 1580 nM
Intrinsic activity [19]: 0.8
IC50 [2]: 1000 nM
SMILES: CCOc1ccc2oc(C(=O)NC(CCSC)c3nc4cnccc4[nH]3)c(C)c2c1 (configuration not stated)

IC50 [2]: 3980 nM
SMILES: CSCCC(NC(=O)c1occc1C)c1nc2ccccc2[nH]1 (configuration not stated)

IC50 [2]: 79.4 nM
SMILES: Cc1cccc(C(NC(=O)c2ccccc2O)C(=O)Nc2c(C)cccc2C)c1C (configuration not stated)

IC50 [2]: 10000 nM
SMILES: CSCCC(NC(=O)c1ccc(C)cc1)c1nc2ccccc2[nH]1 (configuration not stated)

IC50 [2]: 794 nM
SMILES: Cc1cccc(C)c1NC(=O)C(NC(=O)c1ccccc1O)c1ccc(Cl)cc1 (configuration not stated)

inhibition [20]: < 25%
SMILES: CSCCC(NC(=O)Cc1ccccc1)c1nc2ccccc2[nH]1 (configuration not stated)

IC50 [2]: 5010 nM
SMILES: CSCCC(NC(=O)c1ccccc1)c1nc2ccccc2[nH]1 (configuration not stated)

IC50 [21]: 5010 nM
SMILES: CC(C)C(C(=O)O)N1C(=O)/C(=C2/C(=O)N(C)c3ccccc32)SC1=S (configuration not stated)

inhibition [20]: < 25%
SMILES: CCOc1ccc2oc(C(=O)NC(c3nc4ccccc4[nH]3)c3cccs3)c(C)c2c1 (configuration not stated)

IC50 [2]: 1000 nM
SMILES: CCC[C@H](NC(=O)c1oc2ccc(OCC)cc2c1C)c1nc2ccccc2[nH]1

Ki [21]: 100 nM
SMILES: CCc1cc2c(=O)c(-c3nc4ccccc4n3C)c(C)oc2cc1OC(C)=O

IC50 [2]: 2510 nM
SMILES: O=C(NC(C(=O)NC1CCCCC1)c1ccc(Cl)cc1)c1ccccc1O (configuration not stated)
